Experimental data: PMC8348110, “A Novel Peptide Derived from the Transmembrane Domain of Romo1 Is a Promising Candidate for Sepsis Treatment and Multidrug-Resistant Bacteria” (International Journal of Molecular Sciences, 2021)
In brackets after ≈: the same amount, converted by molar mass. Residues, ends and D or L forms follow the SMILES beside them.

Key:
[1] = system: Pseudomonas aeruginosa ATCC 27853; type: cell-based
Method in brief: (§1)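 Mid-log bacteria at 5 × 10^5 CFU/mL in 10 mM sodium phosphate (pH 7.4) with 1% TS broth, exposed 1 h to two-fold peptide dilutions from 64 μg/mL. Samples then plated on TS agar overnight at 37 °C; MBC taken as lowest concentration yielding no colonies.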

[2] = system: Staphylococcus aureus ATCC 29213; type: cell-based
Method in brief: as §1

[3] = system: Streptococcus pneumoniae NCCP 14585; type: cell-based; conditions: NCCP 14585, 1 h
Method in brief: as §1

[4] = system: Methicillin-resistant S. aureus (MRSA) ATCC 33591; type: cell-based, Staphylococcus aureus
Method in brief: as §1

[5] = system: Vancomycin-resistant S. aureus NCCP 15872; type: cell-based, Staphylococcus aureus; conditions: Vancomycin-resistant NCCP 15872, 1 h
Method in brief: as §1

[6] = system: Carbapenem-resistant P. aeruginosa (CRPA), clinical isolate; type: cell-based, Pseudomonas aeruginosa; conditions: 1 h
Method in brief: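 Mid-log clinical isolates diluted to 5 × 10^5 CFU/mL in 10 mM sodium phosphate (pH 7.4) with 1% TS broth, exposed 1 h to peptides two-fold diluted from 64 μg/mL, then plated on TS agar overnight at 37 °C. MBC is the lowest concentration with no colonies.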

[7] = system: human embryotic kidney (HEK) 293 cells; type: cell-based
Protocol: Mammalian cell viability was measured using a 3-(4,5-dimethylthiazol-2-yl)-2,5-diphenyltetrazolium bromide (MTT) assay in HeLa and HEK 293 cells. Cells were cultured on 96-well plates and incubated separately with AMPR-11, AMPR-21, AMPR-22, magainin 2, or daptomycin. After incubation for an hour, the cells were incubated with MTT solution (2 mg/mL of MTT in PBS) for an hour, and the media were removed, and dimethyl sulfoxide was added to allow the MTT formazans to solubilize. The optical density was measured using a SpectraMax Plus 384 microplate reader (Molecular Devices, San Jose, CA, USA) at 550 nm.

**Q.** `CC[C@H](C)[C@H](NC(=O)CNC(=O)CNC(=O)[C@@H](NC(=O)[C@H](C)NC(=O)[C@H](CCSC)NC(=O)[C@H](Cc1ccccc1)NC(=O)[C@@H](NC(=O)CNC(=O)[C@H](Cc1ccccc1)NC(=O)[C@H](CCCCN)NC(=O)CNC(=O)CNC(=O)[C@H](CCCCN)NC(=O)[C@H](CCCCN)NC(=O)[C@H](CCSC)NC(=O)[C@H](CCSC)NC(=O)[C@H](CCCCN)NC(=O)[C@@H](N)CCCCN)[C@@H](C)O)[C@@H](C)CC)C(=O)N[C@@H](CCCNC(=N)N)C(=O)O` [AMPR-22] (H-KKMMKKGGKFGTFMAIGGIR-OH) was tested. Which “MBC Value, P. aeruginosa” value ([1]; ATCC 27853, 1 h) did it give?
**A.** 2 µg/mL (≈ 0.915 µM)

**Q.** And the “MBC Value, Pseudomonas aeruginosa” value ([1]; Table 2, ATCC 27853, modified MBC)?
**A.** 2 µg/mL (≈ 0.915 µM)

**Q.** And the “MBC Value, S. aureus” value ([2]; ATCC 29213, 1 h, pH 7.4)?
**A.** 2 µg/mL (≈ 0.915 µM)

**Q.** And the “MBC Value, Staphylococcus aureus” value ([2]; Table 2, ATCC 29213, modified MBC)?
**A.** 2 µg/mL (≈ 0.915 µM)

**Q.** What about the “MBC Value, Streptococcus pneumoniae” value [3] of the same molecule?
**A.** 4 µg/mL (≈ 1.83 µM)

**Q.** What about the “MBC Value, MRSA” value ([4]; ATCC 33591, 1 h) of the same molecule?
**A.** 2 µg/mL (≈ 0.915 µM)

**Q.** And the “MBC Value, Methicillin-resistant S. aureus” value ([4]; Table 2, ATCC 33591, modified MBC)?
**A.** 2 µg/mL (≈ 0.915 µM)

**Q.** And the “MBC Value, Vancomycin-resistant S. aureus” value [5]?
**A.** 4 µg/mL (≈ 1.83 µM)

**Q.** And the “MBC Value, CRPA” value [6]?
**A.** 4 µg/mL (≈ 1.83 µM)

**Q.** And the “MBC Value, Carbapenem-resistant P. aeruginosa” value [6]?
**A.** 4 µg/mL (≈ 1.83 µM)

**Q.** And the “Cytotoxicity, HEK 293 cells” value [7]?
**A.** slight cytotoxicity
